# Results: patent US11162944B2, “Compositions and methods” (priority 2015, dated 2021)
# Read-outs that look alike come from different tables or passages of the source. Marks after values point to notes of the source that are not given here.
# Test system: biomarker (antibody) in serum samples from patients with symptoms of tuberculosis
# Assay type: binding, human
smiles,measurement,setting,value
CCCCCCCCCCCCCCCCCCCCCC[C@@H](C(=O)OC[C@H]1O[C@H](OC)[C@@H](O)[C@@H]1O)[C@H](O)CCCCCCCCCCCCCCCCC[C@H]1C[C@H]1CCCCCCCCCCCCCCCC[C@@H](OC)[C@@H](C)CCCCCCCCCCCCCCCCCC [Antigen E],ELISA absorbance at 492 nm,serum sample 1 TB+,0.42*
same,ELISA absorbance at 492 nm,serum sample 2 TB+,0.36*
same,ELISA absorbance at 492 nm,serum sample 3 TB+,0.77*
same,ELISA absorbance at 492 nm,serum sample 4 TB+,0.90*
same,ELISA absorbance at 492 nm,serum sample 5 TB+,0.38*
same,ELISA absorbance at 492 nm,serum sample 6 TB+,0.54*
same,ELISA absorbance at 492 nm,serum sample 7 TB+,1.15*
same,ELISA absorbance at 492 nm,serum sample 8 TB+,0.69*
same,ELISA absorbance at 492 nm,serum sample 9 TB+,0.56*
same,ELISA absorbance at 492 nm,serum sample 10 TB−,0.35
same,ELISA absorbance at 492 nm,serum sample 11 TB−,0.45*
same,ELISA absorbance at 492 nm,serum sample 12 TB−,0.29
same,ELISA absorbance at 492 nm,serum sample 13 TB−,0.34
same,ELISA absorbance at 492 nm,serum sample 14 TB−,0.58*
same,ELISA absorbance at 492 nm,serum sample 15 TB−,0.37*
same,ELISA absorbance at 492 nm,serum sample 16 TB−,0.42*
same,ELISA absorbance at 492 nm,serum sample 17 TB−,0.47*
same,ELISA absorbance at 492 nm,serum sample 18 TB−,0.25
same,ELISA absorbance at 492 nm,serum sample 19 TB−,0.31
same,ELISA absorbance at 492 nm,serum sample 20 TB−,0.38*
same,ELISA absorbance at 492 nm,serum sample 21 TB−,0.35
same,ELISA absorbance at 492 nm,serum sample 22 TB−,0.24
same,ELISA absorbance at 492 nm,serum sample 23 TB−,0.35*
same,ELISA absorbance at 492 nm,serum sample 24 TB−,0.26
same,ELISA absorbance at 492 nm,serum sample 25 TB−,0.18
same,ELISA absorbance at 492 nm,serum sample 26 TB−,0.24
same,ELISA absorbance at 492 nm,serum sample 27 TB−,0.33
same,ELISA absorbance at 492 nm,serum sample 28 TB−,0.23
same,ELISA absorbance at 492 nm,serum sample 29 TB−,0.29
same,ELISA absorbance at 492 nm,serum sample 30 TB−,0.24
same,ELISA absorbance at 492 nm,serum sample 31 TB−,0.30
same,ELISA absorbance at 492 nm,serum sample 32 TB−,0.57*
same,ELISA absorbance at 492 nm,serum sample 33 TB−,0.46*
same,ELISA absorbance at 492 nm,serum sample 34 TB−,0.51*
same,ELISA absorbance at 492 nm,serum sample 35 TB−,0.26
same,ELISA absorbance at 492 nm,serum sample 36 TB−,0.23
same,ELISA absorbance at 492 nm,serum sample 37 TB−,0.41*
same,ELISA absorbance at 492 nm,serum sample 38 TB−,0.40*
same,ELISA absorbance at 492 nm,serum sample 39 TB−,0.31
same,ELISA absorbance at 492 nm,serum sample 40 TB−,0.25
same,ELISA absorbance at 492 nm,serum sample 41 TB−,0.33
same,ELISA absorbance at 492 nm,serum sample 42 TB−,0.42*
same,ELISA absorbance at 492 nm,serum sample 43 TB−,0.29
same,ELISA absorbance at 492 nm,serum sample 44 TB−,0.67*
same,ELISA absorbance at 492 nm,serum sample 45 TB−,0.35*
same,ELISA absorbance at 492 nm,serum sample 46 TB−,0.26
same,ELISA absorbance at 492 nm,serum sample 47 TB−,0.41*
same,ELISA absorbance at 492 nm,serum sample 48 TB−,0.17
same,ELISA absorbance at 492 nm,serum sample 49 TB−,0.25
same,ELISA absorbance at 492 nm,serum sample 50 TB−,0.30
same,ELISA absorbance at 492 nm,serum sample 51 TB−,0.18
same,ELISA absorbance at 492 nm,serum sample 52 TB−,0.26
same,ELISA absorbance at 492 nm,serum sample 53 TB−,0.25
same,ELISA absorbance at 492 nm,serum sample 54 TB−,0.20
same,ELISA absorbance at 492 nm,serum sample 55 TB−,0.22
same,ELISA absorbance at 492 nm,serum sample 56 TB−,0.31
same,ELISA absorbance at 492 nm,serum sample 57 TB−,0.29
same,ELISA absorbance at 492 nm,serum sample 58 TB−,0.28
same,ELISA absorbance at 492 nm,serum sample 59 TB−,0.25
same,ELISA absorbance at 492 nm,serum sample 60 TB−,0.29
same,ELISA absorbance at 492 nm,serum sample 61 TB−,0.34
same,ELISA absorbance at 492 nm,serum sample 62 TB−,0.35*
same,ELISA absorbance at 492 nm,serum sample 63 TB−,0.22
same,ELISA absorbance at 492 nm,serum sample 64 TB−,3.98*
CCCCCCCCCCCCCCCCCCCCCCCC[C@@H](C(=O)OC[C@H]1O[C@H](OC)[C@@H](O)[C@@H]1O)[C@H](O)CCCCCCCCCCC[C@H]1CC1CCCCCCCCCCCCCC[C@H]1C[C@H]1CCCCCCCCCCCCCCCCCCCC (some centres unmarked) [Antigen F],ELISA absorbance at 492 nm,serum sample 1 TB+,0.74*
same,ELISA absorbance at 492 nm,serum sample 2 TB+,0.76*
same,ELISA absorbance at 492 nm,serum sample 3 TB+,0.99*
same,ELISA absorbance at 492 nm,serum sample 4 TB+,0.97*
same,ELISA absorbance at 492 nm,serum sample 5 TB+,0.99*
same,ELISA absorbance at 492 nm,serum sample 6 TB+,1.39*
same,ELISA absorbance at 492 nm,serum sample 7 TB+,1.97*
same,ELISA absorbance at 492 nm,serum sample 8 TB+,1.67*
same,ELISA absorbance at 492 nm,serum sample 9 TB+,1.09*
same,ELISA absorbance at 492 nm,serum sample 10 TB−,0.59
same,ELISA absorbance at 492 nm,serum sample 11 TB−,0.92*
same,ELISA absorbance at 492 nm,serum sample 12 TB−,0.84*
same,ELISA absorbance at 492 nm,serum sample 13 TB−,0.60
same,ELISA absorbance at 492 nm,serum sample 14 TB−,1.30*
same,ELISA absorbance at 492 nm,serum sample 15 TB−,0.64
same,ELISA absorbance at 492 nm,serum sample 16 TB−,0.56
same,ELISA absorbance at 492 nm,serum sample 17 TB−,0.81*
same,ELISA absorbance at 492 nm,serum sample 18 TB−,0.68
same,ELISA absorbance at 492 nm,serum sample 19 TB−,0.71*
same,ELISA absorbance at 492 nm,serum sample 20 TB−,1.03*
same,ELISA absorbance at 492 nm,serum sample 21 TB−,0.61
same,ELISA absorbance at 492 nm,serum sample 22 TB−,0.66
same,ELISA absorbance at 492 nm,serum sample 23 TB−,0.81*
same,ELISA absorbance at 492 nm,serum sample 24 TB−,0.62
same,ELISA absorbance at 492 nm,serum sample 25 TB−,0.21
same,ELISA absorbance at 492 nm,serum sample 26 TB−,0.72
same,ELISA absorbance at 492 nm,serum sample 27 TB−,0.61
same,ELISA absorbance at 492 nm,serum sample 28 TB−,0.38
same,ELISA absorbance at 492 nm,serum sample 29 TB−,0.41
same,ELISA absorbance at 492 nm,serum sample 30 TB−,0.39
same,ELISA absorbance at 492 nm,serum sample 31 TB−,0.51
same,ELISA absorbance at 492 nm,serum sample 32 TB−,0.91*
same,ELISA absorbance at 492 nm,serum sample 33 TB−,0.42
same,ELISA absorbance at 492 nm,serum sample 34 TB−,0.49
same,ELISA absorbance at 492 nm,serum sample 35 TB−,0.38
same,ELISA absorbance at 492 nm,serum sample 36 TB−,0.28
same,ELISA absorbance at 492 nm,serum sample 37 TB−,0.55
same,ELISA absorbance at 492 nm,serum sample 38 TB−,0.52
same,ELISA absorbance at 492 nm,serum sample 39 TB−,0.35
same,ELISA absorbance at 492 nm,serum sample 40 TB−,0.35
same,ELISA absorbance at 492 nm,serum sample 41 TB−,0.66
same,ELISA absorbance at 492 nm,serum sample 42 TB−,0.55
same,ELISA absorbance at 492 nm,serum sample 43 TB−,0.30
same,ELISA absorbance at 492 nm,serum sample 44 TB−,0.98*
same,ELISA absorbance at 492 nm,serum sample 45 TB−,0.43
same,ELISA absorbance at 492 nm,serum sample 46 TB−,0.31
same,ELISA absorbance at 492 nm,serum sample 47 TB−,0.56
same,ELISA absorbance at 492 nm,serum sample 48 TB−,0.32
same,ELISA absorbance at 492 nm,serum sample 49 TB−,0.51
same,ELISA absorbance at 492 nm,serum sample 50 TB−,0.37
same,ELISA absorbance at 492 nm,serum sample 51 TB−,0.21
same,ELISA absorbance at 492 nm,serum sample 52 TB−,0.36
same,ELISA absorbance at 492 nm,serum sample 53 TB−,0.26
same,ELISA absorbance at 492 nm,serum sample 54 TB−,0.27
same,ELISA absorbance at 492 nm,serum sample 55 TB−,0.27
same,ELISA absorbance at 492 nm,serum sample 56 TB−,0.73*
same,ELISA absorbance at 492 nm,serum sample 57 TB−,0.37
same,ELISA absorbance at 492 nm,serum sample 58 TB−,0.41
same,ELISA absorbance at 492 nm,serum sample 59 TB−,0.45
same,ELISA absorbance at 492 nm,serum sample 60 TB−,0.44
same,ELISA absorbance at 492 nm,serum sample 61 TB−,0.41
same,ELISA absorbance at 492 nm,serum sample 62 TB−,0.30
same,ELISA absorbance at 492 nm,serum sample 63 TB−,0.25
same,ELISA absorbance at 492 nm,serum sample 64 TB−,0.29
